Legend:
[1] = biological target: T1, calcineurin (CN) catalytic subunit A (CNA), CN-R254K (Homo sapiens, UniProt Q08209, R254K); assay: microscale thermophoresis (MST); format: binding
T1 construct: gene PPP3CA; human CNA/CNB (CNA: M1-N370, CNB: 16-170); with calcineurin B (CNB)

[2] = biological target: T2, calcineurin (CN) catalytic subunit A (CNA); serine/threonine-protein phosphatase 2B catalytic subunit alpha isoform (Homo sapiens, UniProt Q08209); assay: microscale thermophoresis (MST); supported by HDX-MS, CETSA and in vitro activation of CN; format: binding
T2 construct: gene PPP3CA; human CNA/CNB (CNA: M1-N370, CNB: 16-170), His-tagged, E. coli; with calcineurin B (CNB)

## C=C(C)[C@@H]1[C@H]2OC(=O)[C@@H]1[C@]1(O)[C@H]3O[C@H]3[C@]3(CO3)[C@]1(C)[C@@H]2O [tutin]
[1]
  Kd: 7.64 ± 4.48 µM
[2]
  Kd: 0.28 ± 0.27 µM
